According to PubChem BioAssay (NCI):
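The compound was tested at five concentrations on cells cultured in 96-well plates, with a 48-hour exposure period. GI50 is the concentration that inhibits growth by half. TGI: concentration producing complete growth inhibition.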

Legend:
Test in all cases: inhibition of tumour cell growth, NCI panel, 48 h
SF-268 CNS = tested on: SF-268 CNS
HCC-2998 colon = tested on: HCC-2998 colon
U251 CNS = tested on: U251 CNS
A549 NSCLC = tested on: A549 NSCLC
A498 renal = tested on: A498 renal
SK-OV-3 ovarian = tested on: SK-OV-3 ovarian
CCRF-CEM leukemia = tested on: CCRF-CEM leukemia
OVCAR-4 ovarian = tested on: OVCAR-4 ovarian
NCI-H23 lung = tested on: NCI-H23 lung
CAKI-1 renal = tested on: CAKI-1 renal

SMILES | TGI (SF-268 CNS) [µM] | TGI (HCC-2998 colon) [µM] | TGI (U251 CNS) [µM] | TGI (A549 NSCLC) [µM] | TGI (A498 renal) [µM] | TGI (SK-OV-3 ovarian) [µM] | TGI (CCRF-CEM leukemia) [µM] | TGI (OVCAR-4 ovarian) [µM] | TGI (NCI-H23 lung) [µM] | TGI (CAKI-1 renal) [µM] | GI50 (SF-268 CNS) [nM] | GI50 (HCC-2998 colon) [nM] | GI50 (U251 CNS) [nM] | GI50 (A549 NSCLC) [µM] | GI50 (A498 renal) [nM] | GI50 (SK-OV-3 ovarian) [µM] | GI50 (CCRF-CEM leukemia) [nM] | GI50 (OVCAR-4 ovarian) [µM] | GI50 (NCI-H23 lung) [nM] | GI50 (CAKI-1 renal) [µM]
Cn1cc(NC(=O)c2cc(NC(=O)Nc3cc(C(=O)Nc4cc(C(=O)NCCC(=N)N)n(C)c4)n(C)c3)cn2C)cc1C(=O)NCCC(=N)N | > 100 | > 100 | 69.9 | 83.4 | 63.2 | > 100 | 77 | > 100 | > 100 | 92.1 | – | – | – | – | – | – | – | – | – | –
c1cc(C[S+]2CCCC2)ccc1C[S+]1CCCC1 | > 100 | > 100 | > 100 | > 100 | > 100 | > 100 | > 100 | > 100 | > 100 | > 100 | – | – | – | – | – | – | – | – | – | –
N#CCCN(CCC#N)c1ccc(/C=C2\N=C(COc3ccc(Cl)cc3Cl)OC2=O)cc1 | > 100 | > 100 | > 100 | > 100 | > 100 | > 100 | > 100 | > 100 | > 100 | > 100 | – | – | – | – | – | – | – | – | – | –
O=CN1N=C(c2ccc(Nc3ccnc4cc(Cl)ccc34)cc2)CC1c1ccccc1 (centres undefined) | > 100 | 29.5 | 19.2 | > 100 | 6.79 | > 100 | 8.55 | > 100 | > 100 | 32.2 | 3960 | 3500 | 3120 | 4.05 | 1300 | 11.3 | 2510 | 3.88 | 3640 | 3.82
O=C1c2ccccc2-c2nccc3cc(Cl)nc1c23 | 4.28 | > 100 | 10.4 | > 94.1 | 32.5 | > 100 | – | 3 | 2.4 | > 100 | 1740 | > 48500 | 2430 | 5.15 | 6210 | 35.9 | 1060 | 1.64 | 1120 | > 100
NC(=O)C(Br)CBr (centres undefined) | 8.29 | 4.78 | 14.7 | 10.6 | 29 | 25.1 | 6.93 | 2.55 | 3.42 | 1.16 | 2650 | 2180 | 3730 | 3.71 | 15300 | 12 | 1050 | 1.25 | 1740 | 0.472
COc1cc2c(cc1OCCCOC1=C=C=C(c3ccc4c(c3)c3cc(-c5ccc(OCCCOc6cc7c(cc6OC)C(=O)N6CCC[C@H]6C=N7)cc5)ccc3n4S(=O)(=O)c3ccc(C)cc3)C=C1)N=C[C@@H]1CCCN1C2=O | 2.85 | 3.67 | 2.87 | 20.5 | 9.06 | 16.5 | > 50 | 30.9 | 24.2 | 6.21 | 934 | 731 | 966 | 6.7 | 3140 | 5.42 | 190 | 3.58 | 2570 | 1.29
COC(=O)Nc1nc2ccc(Oc3ccc(NC(=O)Nc4cccc(Br)c4)cc3)cc2[nH]1 | > 25 | > 25 | 5.68 | > 13.4 | 17.4 | 15.3 | > 25 | 7.42 | > 17.1 | > 25 | 3980 | 6040 | 1780 | 4.24 | 2100 | 2.95 | 1590 | 3.39 | 3230 | 8.74
CN(C)c1ccc(C(=O)c2ccc(N(C)C)c(N)c2)cc1N | > 100 | 39.3 | > 100 | > 100 | 18.1 | > 45 | > 100 | > 100 | > 80.8 | > 43.3 | 10200 | 3900 | 2790 | 8.4 | 1030 | 5.57 | 1930 | 6.26 | 9750 | 3.02
CCN(CC)c1ccc(N=C2C=C(C(=O)Nc3ccc(S(C)(=O)=O)cc3)C(=O)c3ccccc32)c(C)c1 | > 100 | > 100 | > 100 | > 100 | > 100 | > 100 | > 100 | > 100 | > 100 | > 100 | 2400 | > 100000 | 4690 | 49.6 | > 100000 | 9.45 | > 100000 | 8.91 | 82000 | 81
COc1ccc(S(=O)(=O)N/N=C/CN2C(=O)c3ccccc3C2=O)cc1OC | > 100 | > 100 | > 100 | > 100 | > 100 | > 100 | > 100 | > 100 | > 100 | > 100 | – | – | – | – | – | – | – | – | – | –
CNc1nc(C)c(-c2nc(Nc3cccc(S(N)(=O)=O)c3)ncc2F)s1 | 1.44 | 2.48 | 11.5 | 15.2 | < 0.0308 | 12.4 | > 40.9 | 12.5 | 0.171 | 37.2 | 28.7 | 40.8 | 26.8 | 0.0874 | < 16.8 | 0.0925 | 35.8 | 0.0524 | 43.2 | 0.052
C[C@@H]1COCCN1c1nc(-c2cnc(N)cc2C(F)F)nc(N2[C@H](C)COC[C@@H]2C)n1 | 16.1 | 12.2 | 13.7 | 12.1 | 0.345 | 1.34 | 21.2 | 11.9 | 15.7 | 11.4 | 356 | 310 | 355 | 0.235 | 50.7 | 0.166 | 431 | 0.278 | 267 | 0.19
CC1CCC2(NC1)OC1CC3[C@@H]4CC=C5C=CCC[C@]5(C)C4CC[C@]3(C)C1C2C (some centres undefined) | > 100 | 31.4 | 88.7 | 58.5 | > 100 | 68.4 | 55.4 | 51 | > 100 | > 100 | – | – | – | – | – | – | – | – | – | –
